Consider five compounds from patent publication US10376456B2, “Concentrated and self-preserving compositions of mild surfactants for transparent and skin-pH personal care formulations” (GALAXY SURFACTANTS LTD., priority 2015, dated 2019).

Data set [1] in a line: Critical micelle concentration (CMC). Type of data set: physicochemical. An excerpt: It is well established that in case of surfactants, lower the CMC value, milder the surfactants. Ionic surfactant molecules interact with proteins through charge-charge interaction since the charge density on the head group is high. Whenever aggregates are formed the charge density of micelle is much lesser as the charge gets spread over the large micelle. […] It can be seen from Table 2 that CMC of anionic sodium lauryl sulphate (SLS) is the highest and zwitterionic (electrically neutral) cocoamidopropyl (CAPB) is the lowest.

The subject of another data set is subject's volar arm. The data set is described as follows: Corneometry analysis of skin hydration after repeated application of body-wash. Type of data set: in vivo. The note with it: body-wash 12% active matter, 2% PEG-150 distearate, twice a day for fifteen days, 50% RH, 20° C. An excerpt: Removal of Natural Moisturizing Factor (NMF) from stratum corneum during cleansing leads to a lower capacitance reading since there is less secondary bound water in the skin's corneocytes. […] The corneometer findings are consistent with the TEWL findings.

In the case of `CCCCCCCCCCCCOS(=O)(=O)[O-].[Na+]` [SLS, sodium lauryl sulfate], the CMC in data set [1] was determined as 5.90 mM/liter. The same measure, in the same setting: for Cocoamidopropyl betaine [CAPB] the value was 0.06 mM/liter.

In the case of “Sodium lauryl ether sulfate [sodium lauryl ether sulphate (2 EO)]”, the “Skin moisture level (corneometry)” value in the data set with subject's volar arm is given as “dry the stratum corneum”. The compound sodium cocoyl glycinate registered a CMC in data set [1] of 1.01 mM/liter. The same measure, in the same setting: for Sodium cocoyl isethionate the value was 0.14 mM/liter.
